Laboratory results as given in patent US20230118795A1, “ARYL OR HETEROARYL PYRIDONE OR PYRIMIDINE DERIVATIVE, PREPARATION METHOD AND USE THEREOF” (SUZHOU ZELGEN BIOPHARMACEUTICALS CO., LTD., priority 2020, published 2023).

test system: NCI-H358 (KRAS^G12C mutation) cell; experiment: Cell assay of antiproliferative activity against NCI-H358 cell (Celltiter-Glo, 5 days); assay type: cell-based; conditions: 5 days incubation
Experimental: Cell Assay of Antiproliferative Activity of Compounds Against NCI-H358 (KRAS^G12C Mutation) Cell.
40 μL phosphate buffer was added to the outer wells of the 384 microplate, and 40 μL cell suspension to be tested was added to the other wells. Then the microplate was incubated in a carbon dioxide incubator overnight.
The compounds to be tested were gradiently diluted, each compound was performed 10 concentration gradients (diluted from 50 μM to 0.003 μM) and added 100 nL to the corresponding wells in the microplate. After addition, 40 μl of phosphate buffer was added to each well in rows A and P and columns 1 and 24, and then the microplate was incubated in a carbon dioxide incubator for 5 days.
20 μL of Promega Celltiter-Glo reagent was added to each well of the microplate, and then the luminescence signal was stabilized by oscillating at room temperature for 10 min. Then PekinElmer Envision multi-label analyzer was used to read.
Finally, GraphPad Prism software was used to calculate the IC50 value of the compound and the fitting curve was drawn.
Anti-proliferative activity of the compounds of the present invention against NCI-H358 (KRAS^G12C mutation) cell was shown in Table 1.

| IC50 [nM] | Compound |
| --- | --- |
| 11 | C=CC(=O)N1CCN(c2nc(=O)n(-c3c(CC)cccc3S(C)(=O)=O)c3nc(-c4c(O)cccc4F)c(F)cc23)[C@@H](C)C1 (single isomer, unassigned) [Example 5B] |
| 200 | C=CC(=O)N1CCN(c2nc(=O)n(-c3c(C4CC4)cccc3S(C)(=O)=O)c3nc(-c4c(O)cccc4F)c(F)cc23)[C@@H](C)C1 (single isomer, unassigned) [Example 6A] |
| 15 | C=CC(=O)N1CCN(c2nc(=O)n(-c3c(C4CC4)cccc3S(C)(=O)=O)c3nc(-c4c(O)cccc4F)c(F)cc23)[C@@H](C)C1 (single isomer, unassigned) [Example 6B] |
| 280 | C=CC(=O)N1CCN(c2nc(=O)n(-c3c(C(C)C)cccc3S(C)(=O)=O)c3nc(-c4c(O)cccc4F)c(F)cc23)[C@@H](C)C1 (single isomer, unassigned) [Example 10A] |
| 720 | C=CC(=O)N1CCN(c2nc(=O)n(-c3c(C(C)C)ccnc3S(C)(=O)=O)c3nc(-c4c(O)cccc4F)c(F)cc23)[C@@H](C)C1 (single isomer, unassigned) [Example 16A] |
| 460 | C=CC(=O)N1CCN(c2nc(=O)n(-c3c(S(C)(=O)=O)ccnc3C(C)C)c3nc(-c4c(O)cccc4F)c(F)cc23)[C@@H](C)C1 (single isomer, unassigned) [Example 18B] |
| 1500 | C=CC(=O)N1CCN(c2nc(=O)n(-c3c(C(C)C)ccnc3S(C)(=O)=O)c3nc(-c4ccccc4Cl)c(F)cc23)[C@@H](C)C1 (single isomer, unassigned) [Example 20A] |
| 13 | C=CC(=O)N1CCN(c2nc(=O)n(-c3c(C(C)C)ccnc3S(C)(=O)=O)c3nc(-c4ccccc4Cl)c(F)cc23)[C@@H](C)C1 (single isomer, unassigned) [Example 20B] |
| 350 | C=CC(=O)N1CCN(c2nc(=O)n(-c3c(C4CCC4)cccc3S(C)(=O)=O)c3nc(-c4c(O)cccc4F)c(F)cc23)[C@@H](C)C1 (single isomer, unassigned) [Example 25A] |
| 6 | C=CC(=O)N1CCN(c2nc(=O)n(-c3c(C4CCC4)cccc3S(C)(=O)=O)c3nc(-c4c(O)cccc4F)c(F)cc23)[C@@H](C)C1 (single isomer, unassigned) [Example 25B] |
| 740 | C=CC(=O)N1CCN(c2nc(=O)n(-c3c(C(C)C)cccc3S(C)(=O)=O)c3nc(-c4ccccc4Cl)c(F)cc23)[C@@H](C)C1 (single isomer, unassigned) [Example 30A] |
| 11 | C=CC(=O)N1CCN(c2nc(=O)n(-c3c(C(C)C)cccc3S(C)(=O)=O)c3nc(-c4ccccc4Cl)c(F)cc23)[C@@H](C)C1 (single isomer, unassigned) [Example 30B] |
| 300 | C=CC(=O)N1CCN(c2nc(=O)n(-c3c(C(C)C)cccc3S(C)(=O)=O)c3nc(-c4c(F)cccc4OC(C)=O)c(F)cc23)[C@@H](C)C1 (single isomer, unassigned) [Example 31A] |
| 6 | C=CC(=O)N1CCN(c2nc(=O)n(-c3c(C(C)C)cccc3S(C)(=O)=O)c3nc(-c4c(F)cccc4OC(C)=O)c(F)cc23)[C@@H](C)C1 (single isomer, unassigned) [Example 31B] |
| 66 | C=CC(=O)N1CCN(c2nc(=O)n(-c3c(C)cccc3S(C)(=O)=O)c3nc(-c4c(O)cccc4F)c(F)cc23)[C@@H](C)C1 (single isomer, unassigned) [Example 53B] |
| 9 | C=CC(=O)N1C[C@H](C)N(c2nc(=O)n(-c3c(C4CC4)cccc3S(C)(=O)=O)c3nc(-c4c(O)cccc4F)c(F)cc23)C[C@H]1C (single isomer, unassigned) [Example 81B] |
| 50 | C=CC(=O)N1C[C@H](C)N(c2nc(=O)n(-c3c(CC)cccc3S(=O)(=O)C(C)C)c3nc(-c4c(O)cccc4F)c(F)cc23)C[C@H]1C (single isomer, unassigned) [Example 82B] |
| 26 | C=CC(=O)N1CCN(c2nc(=O)n(-c3c(CC)cccc3S(=O)(=O)C(C)C)c3nc(-c4c(O)cccc4F)c(F)cc23)[C@@H](C)C1 (single isomer, unassigned) [Example 83B] |
| 6 | C=CC(=O)N1C[C@H](C)N(c2nc(=O)n(-c3c(CC)cccc3S(C)(=O)=O)c3nc(-c4c(O)cccc4F)c(Cl)cc23)C[C@H]1C (single isomer, unassigned) [Example 84B] |
| < 30 | C=CC(=O)N1CCN(c2nc(=O)n(-c3c(C)cccc3S(C)(=O)=O)c3nc(-c4c(O)cccc4F)c(F)cc23)[C@@H](C)C1 (single isomer, unassigned) [Example 87A] |
| < 100 | C=CC(=O)N1CCN(c2nc(=O)n(-c3c(C)cccc3S(C)(=O)=O)c3nc(-c4c(O)cccc4F)c(F)cc23)[C@@H](C)C1 (single isomer, unassigned) [Example 87B] |
| 28 | C=CC(=O)N1CCN(c2nc(=O)n(-c3c(CC)cccc3S(C)(=O)=O)c3nc(-c4c(O)cccc4F)c(F)cc23)[C@@H](C)C1 [Example 5, 4-((S)-4-acrylo-2-methylpiperazin-1-yl)-1-(2-ethyl-6-(methylsulfonyl)phenyl)-6-fluoro-7-(2-fluoro-6-hydroxyphenyl) pyridino[2,3-d] pyrimidin-2(1H)-one] |
| 230 | C=CC(=O)N1CCN(c2nc(=O)n(-c3c(CC)cccc3S(C)(=O)=O)c3nc(-c4c(O)cccc4F)c(F)cc23)[C@@H](C)C1 [Example 5A] |

same assay, conditions: Homo sapiens, NCI-H358, 120 h, 5 days incubation

| IC50 [nM] | Compound |
| --- | --- |
| 90 | C=CC(=O)N1CCN(c2nc(=O)n(-c3c(C)ccnc3S(C)(=O)=O)c3nc(-c4c(O)cccc4F)c(F)cc23)[C@@H](C)C1 [Example 1, 4-((S)-4-acryloyl-2-methylpiperazin-1-yl)-6-fluoro-7-(2-fluoro-6-hydroxyphenyl)-1-(4-methyl-2-(methylsulfonyl)pyridin-3-yl) pyridino [2,3-d] pyrimidin-2 (1H)-one] |
| 540 | C=CC(=O)N1CCN(c2nc(=O)n(-c3c(S(C)(=O)=O)ccnc3C)c3nc(-c4c(O)cccc4F)c(F)cc23)[C@@H](C)C1 [Example 2, 4-((S)-4-acryloyl-2-methylpiperazin-1-yl)-6-fluoro-7-(2-fluoro-6-hydroxyphenyl)-1-(2-methyl-4-(methylsulfonyl)pyridin-3-yl) pyridino [2,3-d] pyrimidin-2 (1H)-one] |
| 870 | C=CC(=O)N1CCN(c2nc(=O)n(-c3c(C)cccc3S(C)(=O)=O)c3nc(-c4c(O)cccc4F)c(F)cc23)[C@@H](CC#N)C1 [Example 3, 2-((2S)-4-acryloyl-1-(6-fluoro-7-(2-fluoro-6-hydroxyphenyl)-1-(2-methyl-6-(methylsulfonyl)phenyl)-2-oxo-1,2-dihydropyridino[2,3-d]pyrimidin-4-yl)piperazin-2-yl) acetonitrile] |
| 420 | C=CC(=O)N1CCN(c2nc(=O)n(-c3c(C)cccc3S(=O)(=O)C(C)C)c3nc(-c4c(O)cccc4F)c(F)cc23)[C@@H](C)C1 [Example 4, 4-((S)-4-acryloyl-2-methylpiperazin-1-yl)-6-fluoro-7-(2-fluoro-6-hydroxyphenyl)-1-(2-(isopropylsulfonyl)-6-methylphenyl) pyridino[2,3-d] pyrimidin-2(1H)-one] |
| 28 | C=CC(=O)N1CCN(c2nc(=O)n(-c3c(C4CC4)cccc3S(C)(=O)=O)c3nc(-c4c(O)cccc4F)c(F)cc23)[C@@H](C)C1 [Example 6, 4-((S)-4-acryloyl-2-methylpiperazin-1-yl)-1-(2-cyclopropyl-6-(methylsulfonyl)phenyl)-6-fluoro-7-(2-fluoro-6-hydroxyphenyl) pyridino [2,3-d] pyrimidin-2(1H)-one] |
| 240 | C=CC(=O)N1CCN(c2nc(=O)n(-c3c(C)cccc3S(=O)(=O)C3CC3)c3nc(-c4c(O)cccc4F)c(F)cc23)[C@@H](C)C1 [Example 7, 4-((S)-4-acryloyl-2-methylpiperazin-1-yl)-1-(2-(cyclopropylsulfonyl)-6-methylphenyl)-6-fluoro-7-(2-fluoro-6-hydroxyphenyl) pyridino [2,3-d] pyrimidin-2(1H)-one] |
| 170 | C=CC(=O)N1CCN(c2nc(=O)n(-c3c(Cl)cccc3S(C)(=O)=O)c3nc(-c4c(O)cccc4F)c(F)cc23)[C@@H](C)C1 [Example 8, 4-((S)-4-acryloyl-2-methylpiperazin-1-yl)-1-(2-chloro-6-(methylsulfonyl)phenyl)-6-fluoro-7-(2-fluoro-6-hydroxyphenyl) pyridino [2,3-d] pyrimidin-2 (1H)-one] |
| 230 | C=CC(=O)N1CCN(c2nc(=O)n(-c3c(C)cccc3S(C)(=O)=O)c3nc(-c4c(F)cccc4C(F)F)c(F)cc23)[C@@H](C)C1 [Example 9, 4-((S)-4-acryloyl-2-methylpiperazin-1-yl)-7-(2-(difluoromethyl)-6-fluorophenyl)-6-fluoro-1-(2-methyl-6-(methylsulfonyl)phenyl) pyridino [2,3-d] pyrimidin-2 (1H)-one] |
| 10 | C=CC(=O)N1CCN(c2nc(=O)n(-c3c(C(C)C)cccc3S(C)(=O)=O)c3nc(-c4c(O)cccc4F)c(F)cc23)[C@@H](C)C1 [Example 10, 4-((S)-4-acryloyl-2-methylpiperazin-1-yl)-6-fluoro-7-(2-fluoro-6-hydroxyphenyl)-1-(2-isopropyl-6-(methylsulfonyl)phenyl) pyridino[2,3-d] pyrimidin-2(1H)-one] |
| 180 | C=CC(=O)N1CCN(c2nc(=O)n(-c3c(C)cccc3N(C)S(C)(=O)=O)c3nc(-c4c(O)cccc4F)c(F)cc23)[C@@H](C)C1 [Example 11] |
